Assay results as given in paper PMC5007854, “β-Nitrostyrenes as Potential Anti-leishmanial Agents” (Frontiers in Microbiology, 2016).
Read-outs that look alike come from different tables or passages of the source.

How the values were obtained:
[1] = tested on: L. donovani promastigotes; assay: Leishmanicidal assay (growth reversion after wash-out); assay type: cell-based, Leishmania donovani; settings: 1 μM, 72 h treatment, then 72 h in fresh media
Method: To confirm the leishmanicidal effect of compounds 9, 12, 14, and 18, treated and untreated parasites (1 μM) after 72 h of incubation, were washed two times with fresh incomplete medium and finally resuspended in complete media, transferred back to 22°C and allowed to grow for 72 h. The viability of the parasites was determined microscopically (Afrin et al., [2001]).

[2] = tested on: L. donovani promastigotes; assay: Promastigote cellular morphology by phase-contrast microscopy; assay type: cell-based, Leishmania donovani; settings: 1 μM, 72 h
Method: Changes in the cellular morphology of Leishmania parasites as a result of compounds 9, 12, 14, and 18 treatment was observed microscopically. Briefly, the promastigotes (2 × 10^6 cells/mL) were incubated in the absence or presence of compounds and AmB for 72 h at a concentration of 1 μM and observed under 40 × objective of a phase-contrast microscope. […] Data were recorded by using NIS-Elements imaging software (Paris et al., [2004]).

[3] = tested on: L. donovani intracellular amastigotes; assay: Anti-amastigote activity in ex vivo macrophage model; assay type: cell-based, Leishmania donovani; settings: 48 h; for Clearance of intracellular amastigotes in Giemsa-stained micrographs: 1.56 μM; for IC50: Leishmania donovani, Peritoneal macrophage, in Mus musculus, read-out: L. donovani amastigotes IC50 ± SEM
From the text: BALB/c mice was used for the isolation of peritoneal macrophages in the ex vivo anti-amastigote study after prior approval from the Jamia Hamdard Animal Ethics Committee (JHAEC). JHAEC is registered under the Committee for the purpose of supervision and control of experiments on animals (CPCSEA). Mice were individually housed in the Central Animal House of Jamia Hamdard as per internationally accepted norms. The mice were kept in standard size polycarbonate cages under controlled conditions of temperature (23 ± 1°C), humidity (55 ± 10%), 12:12 h of light and dark cycle and fed with standard pellet diet and filtered water (ad libitum).
Macrophages from the peritonial cavity of BALB/c mice (1 × 10^6 cellsml^−1) were allowed to adhere to round glass coverslips in a 24 well tissue culture plate and incubated for 12 h at 37°C in a CO2 incubator. After removal of the non-adherent macrophages, the cells were infected with stationary phase promastigotes using a cell to parasite ratio of 1:10 and incubated at 37°C for 24 h. The non-phagocytosed parasites were removed by washing, and the infected macrophages incubated with the test compounds 9, 12, 14, and 18 (0–25 μM) for an additional 48 h. The coverslips were fixed in methanol and giemsa-stained for microscopic evaluation (100X) of amastigote infectivity. Number of amastigotes per 100 macrophages were enumerated and the concentration that decreased amastigotes by 50% (IC50) was determined (Wong et al., [2012]; Islamuddin et al., [2014a]).
In vitro antileishmanial activity was expressed as IC50 by linear regression analysis. Values are mean ± SE of samples in triplicate from at least three independent experiments. Statistical analysis was performed using ANOVA followed by Dunnett's test. ^*P < 0.05, ^**P < 0.01 and ^***P < 0.001 compared with the untreated control group were considered significant.

[4] = tested on: nitric oxide production in L. donovani infected peritoneal macrophages; assay: Nitrite (NO) production by Griess reaction in infected macrophages; assay type: cell-based, BALB/c mice; settings: 48 h; for NO levels, in words: 0–25 μM; for NO production (nitrite): compound at 25 μM
Method: The supernatant from control L. donovani infected and treated macrophages were analyzed for nitrite content by the Griess reaction. In brief, equal volume of Griess reagent [1%sulphanilamide and 0.1% N-(1-naphthyl) ethylenediaminedihydrochloride in 5% phosphoric acid] was added to the culture supernatant and the plates were incubated for 10 min at room temperature using sodium nitrite as a standard. The absorbance at 550 nm was measured and the concentration of nitrite was calculated by a linear regression analyzing the standard curve generated with sodium nitrite (Varela et al., [2012]).

[5] = tested on: murine macrophage cell line RAW264.7; assay: Ex vivo cytotoxicity assay (MTT); assay type: cell-based; settings: increasing concentrations, 48 h, 37°C (Figure 6)
Method: Murine macrophage cell line, RAW264.7 was grown at 37°C in medium RPMI-1640 (pH 7.4, Sigma-Aldrich, St. Louis, MO, USA) supplemented with 10% heat-inactivated FBS for 48 to 72 h in a humidified atmosphere of 5% CO2 and sub-cultured in fresh RPMI-1640 medium at an average density 2 × 10^5 cells/ml (Islamuddin et al., [2014b]).
To evaluate the adverse toxicity of test compounds (9, 12, 14, and 18) on mammalian cells, the murine macrophage cell line (RAW264.7) cultured in RPMI 1640 medium were exposed to increasing concentrations of test compounds (5–50 μM) at 37°C, 5% CO2 for 48 h. AmB as the reference drug, and macrophages without any treatment were taken as control. The percentage of cell viability was evaluated by MTT (3-{4, 5-dimethylthiazol-2-yl}-2, 5-diphenyltetrazoliumbromide) assay (Das et al., [2008]).

[6] = intracellular amastigotes in BALB/c peritoneal macrophages

CC/C(=C\c1ccc([N+](=O)[O-])cc1)[N+](=O)[O-] [Compound 9, 1-nitro-4-((E)-2-nitrobut-1-enyl) benzene]
Leishmanicidal effect (reversion after wash and 72 h in fresh media) [1]: did not revert back to their normal morphology and still appeared dead | Cellular morphological alterations of promastigotes [2]: altered to an ovoid shape with cell shrinkage, loss of flagella, cytoplasmic condensation | Clearance of intracellular amastigotes in Giemsa-stained micrographs [3]: almost total clearance | IC50 [3]: 30.5 ± 3.42 nM | NO levels, in words [4]: moderately increased | NO production (nitrite) [4]: 8.05 µM | Adverse toxicity on macrophage cell line RAW264.7 [5]: Absence of adverse toxicity

CC/C(=C\c1cccc([N+](=O)[O-])c1)[N+](=O)[O-] [Compound 12, 1-nitro-3-((E)-2-nitrobut-1-enyl) benzene]
Leishmanicidal effect (reversion after wash and 72 h in fresh media) [1]: did not revert back to their normal morphology and still appeared dead | Cellular morphological alterations of promastigotes [2]: altered to an ovoid shape with cell shrinkage, loss of flagella, cytoplasmic condensation | Clearance of intracellular amastigotes in Giemsa-stained micrographs [3]: almost total clearance | IC50 [3]: 21.5 ± 0.96 nM | NO levels, in words [4]: moderately increased | NO production (nitrite) [4]: 7.89 µM | Adverse toxicity on macrophage cell line RAW264.7 [5]: Absence of adverse toxicity

COc1ccc(/C=C(\C)[N+](=O)[O-])cc1 [Compound 14, 1-methoxy-4-((E)-2-nitroprop-1-enyl) benzene]
Leishmanicidal effect (reversion after wash and 72 h in fresh media) [1]: did not revert back to their normal morphology and still appeared dead | Cellular morphological alterations of promastigotes [2]: altered to an ovoid shape with cell shrinkage, loss of flagella, cytoplasmic condensation | Clearance of intracellular amastigotes in Giemsa-stained micrographs [3]: almost total clearance | IC50 [3, 6]: 26.4 ± 2.71 nM | NO levels, in words [4]: mildly induced | NO production (nitrite) [4]: 5.89 µM | Adverse toxicity on macrophage cell line RAW264.7 [5]: Absence of adverse toxicity

CC/C(=C\c1ccc(O)cc1)[N+](=O)[O-] [Compound 18, 4-((E)-2-nitrobut-1-enyl) phenol]
Leishmanicidal effect (reversion after wash and 72 h in fresh media) [1]: did not revert back to their normal morphology and still appeared dead | Cellular morphological alterations of promastigotes [2]: altered to an ovoid shape with cell shrinkage, loss of flagella, cytoplasmic condensation | Clearance of intracellular amastigotes in Giemsa-stained micrographs [3]: almost total clearance | IC50 [3, 6]: 61.6 ± 8.02 nM | NO production (nitrite) [4]: 3.22 µM | Adverse toxicity on macrophage cell line RAW264.7 [5]: Absence of adverse toxicity
